{"source": "ChEMBL document CHEMBL3407382", "about": "“Syntheses of chondroitin sulfate tetrasaccharide structures containing 4,6-disulfate patterns and analysis of their interaction with glycosaminoglycan-binding protein” (Bioorg Med Chem Lett, 2015)"}
{"molecular_target": "Fibroblast growth factor 2 (Homo sapiens, UniProt P09038)", "sequence (P09038 143-288 limits assumed)": "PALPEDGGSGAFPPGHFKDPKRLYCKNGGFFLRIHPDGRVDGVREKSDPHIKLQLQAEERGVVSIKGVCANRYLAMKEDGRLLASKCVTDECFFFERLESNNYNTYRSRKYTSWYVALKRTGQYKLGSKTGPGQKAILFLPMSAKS", "test": "(§1) Binding affinity to FGF2 (unknown origin) assessed as change in luminance intensity at 25 degC by SPR imaging sensor method", "conditions": "not given; call rule not given here"}
{"molecule": "CC(=O)N[C@H]1[C@H](OC[C@@H](O)[C@@H](O)[C@H](O)[C@@H](O)CNc2cccc(NC(=O)CCCCC3CCSS3)c2)O[C@H](COS(=O)(=O)[O-])[C@H](OS(=O)(=O)[O-])[C@@H]1O[C@@H]1O[C@H](C(=O)O)[C@@H](O[C@@H]2O[C@H](COS(=O)(=O)[O-])[C@H](O)[C@H](O[C@@H]3O[C@H](C(=O)O)[C@@H](O)[C@H](O)[C@H]3O)[C@H]2NC(C)=O)[C@H](O)[C@H]1O.[Na+].[Na+].[Na+]", "note": "(stereo partly drawn)", "Kd": "Not Active"}
{"molecule": "CC(=O)N[C@H]1[C@H](O[C@H]2[C@H](O)[C@@H](OS(=O)(=O)O)[C@H](O[C@H]3[C@@H](O)[C@@H](COS(=O)(=O)O)O[C@@H](OC[C@@H](O)[C@@H](O)[C@H](O)[C@@H](O)CNc4cccc(NC(=O)CCCCC5CCSS5)c4)[C@@H]3NC(C)=O)O[C@@H]2C(=O)O)O[C@H](COS(=O)(=O)O)[C@H](O)[C@@H]1O[C@@H]1O[C@H](C(=O)O)[C@@H](O)[C@H](O)[C@H]1O", "note": "(stereo partly drawn)", "Kd": "Not Active"}
{"molecular_target": "Fibroblast growth factor 2 (Homo sapiens, UniProt P09038)", "test": "as §1", "conditions": "read-out: Kd", "units": {"Kd": "nM"}}
{"molecule": "CC(=O)N[C@H]1[C@H](OCC(O)C(O)C(O)C(O)CNc2cccc(NC(=O)CCCCC3CCSS3)c2)O[C@H](COS(=O)(=O)O)[C@H](OS(=O)(=O)O)[C@@H]1O[C@@H]1O[C@H](C(=O)O)[C@@H](O[C@@H]2O[C@H](COS(=O)(=O)O)[C@H](O)[C@H](O[C@@H]3O[C@H](C(=O)O)[C@@H](O)[C@H](O)[C@H]3OS(=O)(=O)O)[C@H]2NC(C)=O)[C@H](O)[C@H]1OS(=O)(=O)O", "note": "(stereo partly drawn)", "Kd": 16}
{"molecule": "CC(=O)N[C@H]1[C@H](O[C@H]2[C@H](O)[C@@H](O)[C@H](O[C@@H]3[C@@H](NC(C)=O)[C@H](OC[C@@H](O)[C@@H](O)[C@H](O)[C@@H](O)CNc4cccc(NC(=O)CCCCC5CCSS5)c4)O[C@H](CO)[C@@H]3OS(=O)(=O)O)O[C@@H]2C(=O)O)O[C@H](COS(=O)(=O)O)[C@H](OS(=O)(=O)O)[C@@H]1O[C@@H]1O[C@H](C(=O)O)[C@@H](O)[C@H](O)[C@H]1O", "note": "(stereo partly drawn)", "Kd": 5.6}
{"molecule": "CC(=O)N[C@H]1[C@H](O[C@H]2[C@H](O)[C@@H](O)[C@H](O[C@H]3[C@@H](O)[C@@H](COS(=O)(=O)O)O[C@@H](OC[C@@H](O)[C@@H](O)[C@H](O)[C@@H](O)CNc4cccc(NC(=O)CCCCC5CCSS5)c4)[C@@H]3NC(C)=O)O[C@@H]2C(=O)O)O[C@H](COS(=O)(=O)O)[C@H](OS(=O)(=O)O)[C@@H]1O[C@@H]1O[C@H](C(=O)O)[C@@H](O)[C@H](O)[C@H]1O", "note": "(stereo partly drawn)", "Kd": 8.2}
{"molecule": "CC(=O)N[C@H]1[C@H](O[C@H]2[C@H](O)[C@@H](O)[C@H](O[C@@H]3[C@@H](NC(C)=O)[C@H](OC[C@@H](O)[C@@H](O)[C@H](O)[C@@H](O)CNc4cccc(NC(=O)CCCCC5CCSS5)c4)O[C@H](COS(=O)(=O)O)[C@@H]3OS(=O)(=O)O)O[C@@H]2C(=O)O)O[C@H](COS(=O)(=O)O)[C@H](OS(=O)(=O)O)[C@@H]1O[C@@H]1O[C@H](C(=O)O)[C@@H](O)[C@H](O)[C@H]1O", "note": "(stereo partly drawn)", "Kd": 5.2}
{"molecule": "CC(=O)N[C@H]1[C@H](OC[C@@H](O)[C@@H](O)[C@H](O)[C@@H](O)CNc2cccc(NC(=O)CCCCC3CCSS3)c2)O[C@H](COS(=O)(=O)O)[C@H](O)[C@@H]1O[C@@H]1O[C@H](C(=O)O)[C@@H](O[C@@H]2O[C@H](COS(=O)(=O)O)[C@H](O)[C@H](O[C@@H]3O[C@H](C(=O)O)[C@@H](O)[C@H](O)[C@H]3OS(=O)(=O)O)[C@H]2NC(C)=O)[C@H](O)[C@H]1OS(=O)(=O)O", "note": "(stereo partly drawn)", "Kd": 48}
{"molecule": "CC(=O)N[C@H]1[C@H](O[C@H]2[C@H](O)[C@@H](OS(=O)(=O)O)[C@H](O[C@H]3[C@@H](O)[C@@H](COS(=O)(=O)O)O[C@@H](OC[C@@H](O)[C@@H](O)[C@H](O)[C@@H](O)CNc4cccc(NC(=O)CCCCC5CCSS5)c4)[C@@H]3NC(C)=O)O[C@@H]2C(=O)O)O[C@H](COS(=O)(=O)O)[C@H](OS(=O)(=O)O)[C@@H]1O[C@@H]1O[C@H](C(=O)O)[C@@H](O)[C@H](O)[C@H]1O", "note": "(stereo partly drawn)", "Kd": 4.7}
